Experimental data from patent US10829506B2, “Amino- or ammonium-containing sulfonic acid, phosphonic acid and carboxylic acid derivatives and their medical use” (GRI Bio, Inc., priority 2011, dated 2020).
pIC50: −log10 of the molar value. Read-outs that look alike come from different tables or passages of the source.

How the values were obtained:
RBL-2H3 cells [1] = test: Maximum tolerated concentration (cytotoxicity by lactate dehydrogenase release); type: cell-based, rat
Description: A commercially available cytotoxicity test was used (Promega Cytotox-One cat. #67891).
The safety index (SI) of a test compound Is the ratio between the maximum tolerated concentration and the 1C50 and is used as a measure of the relative safety of the test compound.

RBL-2H3 cells [2] = test: Inhibition of mast cell degranulation (β-hexosaminidase release); type: cell-based, rat; details: for pIC50: RBL-2H3 cells sensitized with anti-DNP IgE, triggered with DNP-HSA, 1 h preincubation
Description: Mast cells are key effector cells involved in allergic and inflammatory diseases, and the Rat Basophilic Leukemia clone 2H3 (RBL-2H3) cell line is a commonly used model of allergen dependent immune modulator release (degranulation) in mast cells. On their surface, they express the high affinity receptor for IgE (FcεRI). Upon binding of antigen-specific IgE to the receptor, cells become sensitized to the IgE specific antigen (allergen). When IgE-sensitized cells then encounter multivalent antigen, the antigen clusters IgE-FcεRI complexes and initiates a signal transduction cascade that leads to degranulation, that is, the release of inflammatory mediators, such as cytokines, eicosanoids, histamine and enzymes. The assay can be used as a screening method to identify immune-modulating compounds, in particular compounds useful in the medical management of allergic and inflammatory diseases and asthma, β-hexosaminidase was previously shown to be released with the same kinetics as histamine (Schwartz et al., J Immunology; 123:1445-1450 (1979)), thus offering a simple means to monitor degranulation. The RBL-2H3 cell line has been successfully used to identify compounds with anti-allergic activity (Choo et al. Planta Med., 69:518-522 (2003)).
Cell Culture: RBL-2H3 cells obtained from the German Collection of Microorganisms and Cell Cultures (ACC312) (Braunschweig, Germany) were maintained in 70% Minimum Essential Medium with Earle's Salts, 20% RPMI 1640 Medium, 10% FBS and 2 mM l-glutamine in 95% air/5% CO2 at 37° C. and routinely checked for mycoplasma contamination. Cells were passaged every 3-4 days; after washing cells once with 35 ml PBS cells were incubated 8 min with 5 ml 0.05% Trypsin-EDTA solution at 37° C. Cells were removed from the incubator, 15 ml culture medium was added and cells were resuspended by repeated pipetting.
Cell seeding: cells were harvested with Trypsin-EDTA as described and 50-100 μl cell suspension seeded Into Costar CellBind 24 well cluster plates (no. 3337). Plates were kept for 30 min at RT under the sterile hood before being transferred to the incubator. Cells were used within one or two days after seeding.
For sensitization, cells for immediate use were sensitized 6-12 h after plating; cells to be used the following day were sensitized 26-38 h after plating. Culture plates were removed from the incubator and checked for cell growth and contamination. The medium was discarded and cells were sensitized with anti-DNP IgE (0.4 μg/ml) in 0.4 ml culture medium overnight. Following overnight sensitization, cells were washed with 0.8 ml pre-warmed TyB and 0.38 ml test compound or vehicle control (supplemented or not with 1% FBS) were added to duplicate wells. Samples were adjusted to contain 1% vehicle for test compounds dissolved in organic solvents. Cells were incubated for 1 h at 37° C. At the end of the incubation period, cells were routinely stimulated with 20 μl DNP-HSA (2 μg/ml; final concentration 0.1 μg/ml) diluted in TyB and cells were incubated for 15 min at 37° C. Alternatively, cells were stimulated with 20 μl […] (final concentration 0.25 μM) or 20 nM […] (final concentration 0.25 μM), both in the absence or presence of 20 nM PMA (final concentration).
Plates were removed from the incubator and immediately centrifuged at 4° C. for 5 min at 250×g and transferred to an ice bath. Aliquots of supernatants, 25 μl, were transferred to 96-well plates. Remaining supernatant was aspirated from control wells and cells were lysed in […] lysis buffer for 5 min at RT on an orbital shaker at 450 rpm under non-sterile conditions. After lysis, 25 μl aliquots of lysates were transferred to 96-well plates.
MUG substrate solution, 100 μl, were added to supernatant and lysate samples and plates were incubated 30 min at 37° C. The reaction was terminated by addition of 150 μl stop solution. Fluorescence was measured at 365 nm excitation and 440 nm emission wavelengths. […]

[3] = highest concentration not causing cytotoxicity, LDH release
[4] = ratio between maximum tolerated concentration and IC50
[5] = Rattus norvegicus, 25 μM, RBL-2H3 cells

Row | Structure (SMILES) | MTC (maximum tolerated concentration) (RBL-2H3 cells [1]; [3]) [µM] | SI (safety index, ratio MTC/IC50) (RBL-2H3 cells [1]; [4]) | pIC50 (RBL-2H3 cells [2]) | pIC50 (RBL-2H3 cells [2]; Rattus norvegicus) | other results
1 | CCCCCCCCCCCC[N+](C)(C)CCCP(=O)(O)O [Compound 1t, 3-(N,N-Dimethyldodecylammonio)Propylphosphonic Acid] | 200 | 32.8 | 5.21 | – | –
2 | CCCCCCCCCCCC[N+](C)(C)CCC(=O)[O-] [Compound 1m, 3-(Dimethyl(Dodecyl)Ammonio)Propanoate] | 100 | – | – | – | inhibition at 25 µM (RBL-2H3 cells [2]; [5]): 73%
3 | CCCCCCCCCCCCCCN(C)CCCC(=O)O [Compound 1n, 4-(Methyl(Tetradecyl)Ammonio)Butanoate] | 100 | 12.5 | – | 5.10 | –
4 | CCCCCCCCCCCCCCCCN(C)CCCP(=O)(O)O [Compound 1v, 3-(N-Methyl-N—Hexadecylamino)Propylphosphonic Acid] | 200 | 22.7 | – | 5.06 | –
5 | CCCCCCCCCCCCCCN(C)CCS(=O)(=O)O [Compound 1s, 2-(N-Methyltetradecylammonio)Ethanesulfonate] | 100 | 17.9 | – | 5.25 | –
6 | CCCCCCCCCCCCCC[N+](C)(C)CC(CC)CS(=O)(=O)[O-] (centres unmarked) [Compound 1f, 2-((Dimethyl(Tetradecyl)Ammonio)Methyl)Butane-1-Sulfonate] | 75 | 18.8 | – | 5.40 | –
7 | CCCCCCCCCCCCCCCC[N+]1(CCCS(=O)(=O)[O-])CCCCC1 [Compound 2a, N—Hexadecyl-N-(3-Sulfonatopropyl)Piperidinium] | 50 | 11.1 | – | 5.35 | –
8 | CCCCCCCCCCCCCC[N+](C)(C)CC(=O)[O-] [Compound 1j, N-Tetradecyl-N,N-Dimethylglycine] | 75 | 14.7 | 5.29 | – | –
9 | CCCCCCCCCCCCCCCCCC[N+](C)(C)CCCS(=O)(=O)[O-] [Compound 1g, 3-(N,N-Dimethyloctadecylammonio)Propanesulfonate] | 50 | 5.3 | – | 5.02 | –
10 | Br.CCCCCCCCCCCCCCN(C)CCCP(=O)(OCC)OCC [Compound 1x, 3-(N-Methyl-N-Tetradecylamino)Propylphosphonic Acid Diethyiester Hydrobromide] | 100 | 18.2 | 5.26 | – | –
11 | CCCCCCCCCCCCCC[N+](C)(C)CCCC(=O)[O-] [Compound 1o, 4-(Dimethyl(Tetradecyl)Ammonio)Butanoate] | 100 | – | – | – | inhibition at 25 µM (RBL-2H3 cells [2]; [5]): 65%
12 | CCCCCCCCCCCCCCN(C)CCCS(=O)(=O)O [Compound 1b, 3-(N-Methyltetracylammonio)Propanesulfonate] | – | – | 5.37 | – | MTC (maximum tolerated concentration) (RBL-2H3 cells [1]): 100 µM; SI (safety index, ratio MTC/IC50) (RBL-2H3 cells [1]): 23.3
13 | CCCCCCCCCCCCCCCCOP(=O)([O-])OCC[N+](C)(C)C [Miltefosine, reference compound] | – | – | – | 5.38 | MTC (maximum tolerated concentration) (RBL-2H3 cells [1]; rat): 25 µM; SI (safety index, ratio MTC/IC50) (RBL-2H3 cells [1]; rat): 6.0
14 | CCCCCCCCCCCCCCCC[N+]1(CCCS(=O)(=O)[O-])CCC(O)CC1 (centres unmarked) [Compound 2b, 1-Hexadecyl-1-(3-Sulfonatopropyl)-4-Hydroxypiperidinium] | 50 | 11.6 | – | 5.37 | –
15 | CCCCCCCCCCCC[N+](C)(C)CC(=O)[O-] [Compound 1p, N-Dodecyl-N,N-Dimethylglycine] | – | – | – | – | MTC (maximum tolerated concentration) (RBL-2H3 cells [1]): 100 µM; Inhibition of degranulation: % inhibition at 25 μM (RBL-2H3 cells [2]; 25 μM, RBL-2H3 cells): 50%
16 | CCCCCCCCCCCCCC[N+](C)(C)CCC(=O)[O-] [Compound 1k, 3-(Dimethyl(Tetradecyl)Ammonio)Propanoate] | 100 | 18.9 | – | 5.28 | –
17 | CCCCCCCCCCCCCCN(C)CCCP(=O)(O)O [Compound 1u, 3-(N-Methyl-N-Tetradecylamino)Propylphosphonic Acid (Betaine)] | 200 | 33.9 | 5.23 | – | –
18 | CCCCCCCCCCCC[N+](C)(C)CCCS(=O)(=O)[O-] [Compound 1i, 3-(N,N-dimethyldodecyl-ammonio) propanesulfonate] | – | – | 5.39 | – | MTC (maximum tolerated concentration) (RBL-2H3 cells [1]): 200 µM; SI (safety index, ratio MTC/IC50) (RBL-2H3 cells [1]): 48.8
19 | CCCCCCCCCCCC[N+](C)(C)CCS(=O)(=O)[O-] [Compound 1r, 2-(N,N-Dimethyldodecylammonio)Ethanesulfonate] | 200 | 47.6 | – | 5.38 | –
20 | CCCCCCCCCCCCN(C)CCS(=O)(=O)O [Compound 1q, 2-(N-Methyldodecylammonio)Ethanesulfonate] | 200 | 22.7 | – | 5.06 | –
21 | CCCCCCCCCCCCCC[N+](C)(C)CCS(=O)(=O)[O-] [Compound 1d, 2-(N,N-Dimethyltetradecylammonio)Ethanesulfonate] | 100 | 25.6 | – | 5.41 | –
22 | Br.CCCCCCCCCCCCCCCCN(C)CCCP(=O)(OCC)OCC [Compound 1w, 3-(N-Methyl-N—Hexadecylamino)Propylphosphonic Acid Diethylester Hydrobromide] | 200 | 29.0 | – | 5.16 | –
23 | CCCCCCCCCCCCCC[N+](C)(C)CCCCS(=O)(=O)[O-] [Compound 1e, 4-(N1N-Dimethylmyristylammonio)Butanesulfonate] | – | – | 5.43 | – | MTC (maximum tolerated concentration) (RBL-2H3 cells [1]): 150 µM; SI (safety index, ratio MTC/IC50) (RBL-2H3 cells [1]): 40.5
24 | CCCCCCCCCCCCCCCC[N+](C)(C)CCCS(=O)(=O)[O-] [Compound 1h, 3-(N,N-dimethyIpalmitylammonio)propansulfonate] | – | – | 5.43 | – | MTC (maximum tolerated concentration) (RBL-2H3 cells [1]): 50 µM; SI (safety index, ratio MTC/IC50) (RBL-2H3 cells [1]): 13.5
25 | CCCCCCCCCCCCCC[N@+]1(CCCS(=O)(=O)[O-])CCC[C@H](C(=O)N(CC)CC)C1 (racemic) [Compound 2c, Trans-N-Tetradecyl-N-(3-Sulfonatopropyl)-3-Diethylaminocarbonyl-Piperidinium] | 100 | – | – | – | inhibition at 25 µM (RBL-2H3 cells [2]; [5]): 50%
